Measured values published in the supplement of paper PMC7840683.

Test system: HepaRG
Experiment: LDH release cytotoxicity, % of total lysis control; higher = more cytotoxic
Settings: 48 h
Method in brief: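 The CytoTox-ONE kit was used to read LDH in 50 µL spent medium as resorufin fluorescence on a Tecan Safire, with 0.1% Triton X added to total lysis wells. Beforehand, single-lot HepaRG cells on collagen I-coated 96-well plates had been exposed in duplicate for 48 h to eight-point half-log series (top 100 µM) in serum-free induction medium containing 0.5% DMSO. Percent cytotoxicity was normalized against on-plate vehicle and total lysis controls and averaged over duplicates.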

O=C(O)c1ccccc1 [Benzoic acid]
Settings | LDH release cytotoxicity [%]
0.0324133 µM | -0.341
0.1025 µM | -0.867
0.324134 µM | -1.11
1.025 µM | -0.944
3.24133 µM | -0.925
10.25 µM | 0.28
32.4133 µM | 0.174
102.5 µM | 0.953

CCCCCCCCOC(=O)c1ccc(C(=O)OCCCCCCCC)c(C(=O)OCCCCCCCC)c1 [Tri-n-octyl trimellitate]
Settings | LDH release cytotoxicity [%]
0.031623 µM | -2.2
0.1 µM | -3.02
0.316228 µM | -2.45
1 µM | -1.71
3.16228 µM | -2.25
10 µM | -2.21
31.6228 µM | -0.9931
100 µM | 1.54

CC(C)CCCCCCOC(=O)C1CCCCC1C(=O)OCCCCCCC(C)C (configuration not stated) [Diisononyl cyclohexane-1,2-dicarboxylate]
Settings | LDH release cytotoxicity [%]
0.03162 µM | -0.786
0.1 µM | -0.599
0.3162278 µM | -1.09
1 µM | -0.000557
3.16228 µM | -0.402
10 µM | 0.246
31.6228 µM | -0.258
100 µM | 1.07

O=C=NCCCCCCN=C=O [1,6-Diisocyanatohexane]
Settings | LDH release cytotoxicity [%]
0.03162 µM | -1.38
0.1 µM | -0.852
0.3162278 µM | 0.3
1 µM | -0.656
3.16228 µM | 0.0821
10 µM | 0.975
31.6228 µM | 0.748
100 µM | 0.578

CCCCCCOC(=O)c1ccccc1C(=O)OCCCCCC [Dihexyl phthalate]
Settings | LDH release cytotoxicity [%]
0.03162 µM | -0.113
0.1 µM | -2.29
0.3162278 µM | -1.07
1 µM | -1.78
3.16228 µM | -2.06
10 µM | 4.57
31.6228 µM | 25.3
100 µM | 81

NC(=O)O [Ammonium carbamate]
Settings | LDH release cytotoxicity [%]
0.031623 µM | -0.98
0.1 µM | -2.14
0.316228 µM | -3.38
1 µM | -2.11
3.16228 µM | -2.31
10 µM | -1.92
31.6228 µM | -0.516
100 µM | 0.311

O=C(O)C(F)(F)C(F)(F)C(F)(F)C(F)(F)C(F)(F)C(F)(F)C(F)(F)F [Ammonium perfluorooctanoate]
Settings | LDH release cytotoxicity [%]
0.03162 µM | -2.46
0.1 µM | -2
0.3162278 µM | -1.7
1 µM | -2.4
3.16228 µM | -1.55
10 µM | -1.1
31.6228 µM | -0.665
100 µM | 5.278

CCOC(=O)COc1cc(-n2ncc(C(F)(F)F)c(C)c2=O)c(F)cc1Cl [Flufenpyr-ethyl]
Settings | LDH release cytotoxicity [%]
0.03162 µM | -1.89
0.1 µM | -1.45
0.3162278 µM | -1.14
1 µM | -1.34
3.16228 µM | -1.22
10 µM | -0.592
31.6228 µM | -0.509
100 µM | 0.726

CNC(=O)Oc1cccc2ccccc12 [Carbaryl]
Settings | LDH release cytotoxicity [%]
0.03162 µM | -0.447
0.1 µM | -1.82
0.3162278 µM | -1.28
1 µM | -0.688
3.16228 µM | -0.561
10 µM | 0.0525
31.6228 µM | 0.246
100 µM | 0.543

CCCN(CCC)c1c([N+](=O)[O-])cc(C(C)C)cc1[N+](=O)[O-] [Isopropalin]
Settings | LDH release cytotoxicity [%]
0.03162 µM | -0.731
0.1 µM | -1.48
0.3162278 µM | -2.92
1 µM | -1.36
3.16228 µM | -1.98
10 µM | -1.28
31.6228 µM | -1.55
100 µM | -0.986

C#CC1(O)CCC2C3CCC4=CC(=O)CCC4C3CCC21C (configuration not stated) [Norethindrone]
Settings | LDH release cytotoxicity [%]
0.03162 µM | -0.43
0.1 µM | 0.00115
0.3162278 µM | -0.373
1 µM | -0.047
3.16228 µM | 0.727
10 µM | 0.906
31.6228 µM | 2.7
100 µM | 2.69

ClC(Cl)=C(c1ccc(Cl)cc1)c1ccc(Cl)cc1 [p,p'-DDE]
Settings | LDH release cytotoxicity [%]
0.03162 µM | -0.311
0.1 µM | -0.017
0.3162278 µM | -0.636
1 µM | -0.675
3.16228 µM | 0.0542
10 µM | -0.0981
31.6228 µM | 0.0466
100 µM | 0.471

CCCCCOC(=O)COc1cc(N2C(=O)C3=C(CCCC3)C2=O)c(F)cc1Cl [Flumiclorac-pentyl]
Settings | LDH release cytotoxicity [%]
0.03162 µM | -1.94
0.1 µM | -1.12
0.3162278 µM | -0.329
1 µM | -1.17
3.16228 µM | -0.793
10 µM | -0.278
31.6228 µM | -1.05
100 µM | 0.436

c1ccc(OP(Oc2ccccc2)Oc2ccccc2)cc1 [Triphenyl phosphite]
Settings | LDH release cytotoxicity [%]
0.03162 µM | -1.51
0.1 µM | -1.17
0.3162278 µM | -1.23
1 µM | -1.46
3.16228 µM | -0.429
10 µM | -1.22
31.6228 µM | -1.26
100 µM | 1.56

C[Si](Cn1cncn1)(c1ccc(F)cc1)c1ccc(F)cc1 [Flusilazole]
Settings | LDH release cytotoxicity [%]
0.03162 µM | -1.41
0.1 µM | -1.68
0.3162278 µM | -2.26
1 µM | -1.24
3.16228 µM | -2.08
10 µM | -1.2
31.6228 µM | 13.7
100 µM | 42.5

CNC(=O)ON=CC(C)(C)SC [Aldicarb]
Settings | LDH release cytotoxicity [%]
0.03162 µM | -1.61
0.1 µM | -1.37
0.3162278 µM | -2.06
1 µM | -1.68
3.16228 µM | -1.686
10 µM | -0.703
31.6228 µM | -1.04
100 µM | -0.341

ClC1C(Cl)C(Cl)C(Cl)C(Cl)C1Cl (stereo not drawn) [beta-Hexachlorocyclohexane]
Settings | LDH release cytotoxicity [%]
0.03162 µM | -4.28
0.1 µM | -4.78
0.3162278 µM | -4.47
1 µM | -4.51
3.16228 µM | -3.52
10 µM | -2.88
31.6228 µM | -2.3
100 µM | -0.552

N#Cc1c[nH]cc1-c1cccc2c1OC(F)(F)O2 [Fludioxonil]
Settings | LDH release cytotoxicity [%]
0.03162 µM | -1.45
0.1 µM | -1.69
0.3162278 µM | -1.72
1 µM | -1.04
3.16228 µM | 0.437
10 µM | 0.919
31.6228 µM | 3.74
100 µM | 9.41

CS(=O)(=O)c1ccc(C(=O)C2C(=O)CCCC2=O)c([N+](=O)[O-])c1 [Mesotrione]
Settings | LDH release cytotoxicity [%]
0.0320971 µM | 0.286
0.1015 µM | -0.676
0.320971 µM | -1.35
1.015 µM | -0.8
3.2097118 µM | -0.694
10.15 µM | -1.17
32.0971 µM | -1.09
101.5 µM | -1.76
